Where two headings read alike, the source gives them in different places.
Key:
Assay type in all cases: physicochemical
[1] = Headspace above the wet washed hair: relative partition parameter headspace/shampoo (SPME-GC)
Description: (§1) The procedure is analogous in all examples.
The example reflects the scent impression, which is perceived from freshly washed hair. The shampoo is prepared as is generally customary. The mixture of 39 odorants is incorporated into the above-mentioned shampoo (1st) in an amount of 1%. A hair tress (2.5 g) is washed in 100 ml of a 20% shampoo solution in water by immersing 5-10 times and stirring, and then rinsed in 100 ml of clear water by immersing it three times. The hair tress is carefully patted with thin cellulose. The moist hair tress is transferred to a 100 ml Erlenmeyer flask sealed with a septum and left to stand for 3 h. The headspace above the washed and rinsed hair tress is extracted over 15 min using solid phase microextraction (SPME). The SPME needle is desorbed in a GC injector, and a gas chromatogram is recorded. […] The analytical results are then used mathematically as described above.

[2] = Headspace above the shampoo: relative partition parameter (SPME-GC); details: log of amount in headspace relative to amount in shampoo; 1% odorant mixture, SPME 15 min
Description: as §1
The example reflects the scent impression, which is perceived from a freshly opened bottle of shampoo. The mixture of 39 odorants is incorporated into the above-mentioned shampoo (1) in an amount of 1%. 20 g of the shampoo are transferred to a 100 ml Erlenmeyer flask sealed with a septum. The headspace above the shampoo is extracted using a SPME over 15 min. […] The analytical results are then used mathematically as described above.

[3] = Headspace above the soap bar: relative partition parameter (SPME-GC)
Description: as §1
The example reflects the scent impression, which is perceived from a fresh bar of soap. […] 20 g of the grated soap are transferred to a 100 ml Erlenmeyer flask sealed with a septum. The headspace above the shampoo is extracted using a SPME over 15 min. […] The analytical results are then used mathematically as described above.

[4] = Headspace above the washing powder: relative partition parameter (SPME-GC)
Description: as §1
The example reflects the scent impression, which is perceived from a freshly opened pack of laundry detergent. The mixture of 39 odorants is incorporated in the above-mentioned washing powder in an amount of 0.5%. 20 g of the washing powder are transferred to a 100 ml Erlenmeyer flask sealed with a septum. The headspace above the shampoo is extracted using a SPME over 15 min. […] The analytical results are then used mathematically as described above.

[5] = Headspace above the candle wax: relative partition parameter (SPME-GC); details: log of amount in headspace relative to amount in candle wax; 5% odorant mixture, grated nonburning candle, SPME 15 min
Description: as §1
The example reflects the scent impression, which is perceived from a nonburning candle. The mixture of 39 odorants is incorporated into a candle in an amount of 5%. 20 g of the grated candle are transferred to a 100 ml Erlenmeyer flask sealed with a septum. The headspace above the candle is extracted using a SPME over 15 min. […] The analytical results are then used mathematically as described above.

[6] = Headspace above the fresh gel room air freshener: relative partition parameter (SPME-GC); details: log of amount in headspace relative to amount in gel; 5% odorant mixture, 10 liter vessel, 1 h, SPME 15 min
Description: as §1
The example reflects the scent impression, which is perceived above a fresh gel room air freshener. The mixture of 39 odorants is incorporated into an air freshener in an amount of 5%. 100 g of the air freshener are placed in its customary presentation form in a large sealed 10 liter vessel. The air freshener is left to stand for one hour. The headspace above the air freshener is extracted using a SPME over 15 min. […] The analytical results are then used mathematically as described above.

[7] = Headspace above the solution of WC scented block cleaner: relative partition parameter (SPME-GC); details: log of amount in headspace above 1% solution in water relative to amount in WC block; 1% odorant mixture, SPME 15 min
Description: as §1
The example reflects the scent impression, which is perceived from a WC scented block cleaner. The mixture of 39 odorants is incorporated into the toilet block in an amount of 1%. A 1% solution of the toilet block in water is prepared. 20 ml of this solution are transferred to a 100 ml Erlenmeyer flask sealed with a septum. The headspace above the shampoo is extracted by means of a SPME over 15 min. […] The analytical results are then used mathematically as described above.

[8] = log of amount in headspace above wet washed hair relative to amount in shampoo, 1% odorant mixture, 3 h standing, SPME 15 min
[9] = log of amount in headspace relative to amount in soap, 1.2% odorant mixture, grated soap, SPME 15 min
[10] = log of amount in headspace relative to amount in washing powder, 0.5% odorant mixture, SPME 15 min

| Compound | Activity (logarithmic partition parameter above wet hair) [1, 8] | Activity (logarithmic partition parameter above shampoo) [2] | Activity (logarithmic partition parameter above soap) [3, 9] | Activity (logarithmic partition parameter above washing powder) [4, 10] | Activity (logarithmic partition parameter above candle wax) [5] | Activity (logarithmic partition parameter above gel room air fresheners) [6] | Activity (logarithmic partition parameter above dissolved WC scented block cleaners) [7] | Activity (logarithmic partition parameter above wet hair) [1] | Activity (logarithmic partition parameter above soap) [3] | Activity (logarithmic partition parameter above washing powder) [4] |
| --- | --- | --- | --- | --- | --- | --- | --- | --- | --- | --- |
| CC(C)=CCC/C(C)=C/CO [Geraniol] | −2.043 | −1.839 | −0.952 | −0.976 | −1.273 | −0.365 | −2.045 | – | – | – |
| CC(=O)/C=C/C1C(C)=CCCC1(C)C (stereo not drawn) [Ionone, alpha] | −1.559 | −1.157 | −0.701 | −0.697 | −1.441 | −0.515 | −1.152 | – | – | – |
| CC(=O)/C=C/C1=C(C)CCCC1(C)C [Ionone, beta] | −1.636 | −1.282 | −0.837 | −0.778 | −1.606 | −0.662 | −0.819 | – | – | – |
| CC(C=O)Cc1ccc(C(C)(C)C)cc1 (stereo not shown) [Lilial] | −2.089 | −1.900 | −1.331 | −1.448 | −2.105 | −1.548 | −1.400 | – | – | – |
| C=CC(C)(O)CCC=C(C)C (stereo not shown) [Linalool] | −1.119 | −0.511 | −0.028 | 0.057 | −0.420 | 0.376 | −1.299 | – | – | – |
| OCCc1ccccc1 [PEA, phenylethyl alcohol] | −1.349 | −0.742 | 0.170 | −0.176 | −0.632 | 0.245 | −1.636 | – | – | – |
| CC(=O)OCC=C(C)C [Prenyl acetate] | −0.299 | 0.844 | 1.180 | 1.167 | 0.726 | 0.674 | −1.070 | – | – | – |
| CC(=O)OC(C)c1ccccc1 (stereo not shown) [Styrolyl acetate] | −1.029 | −0.232 | 0.486 | 0.246 | −0.341 | 0.568 | −1.320 | – | – | – |
| CC(=O)OC(C)(C)C1CC=C(C)CC1 (stereo not shown) [Terpinyl acetate] | – | −0.561 | – | – | −0.979 | −0.029 | −0.524 | −1.135 | −0.253 | −0.196 |
| CC1=CCC2CC1C2(C)C (stereo not drawn) [alpha-Pinene] | −0.776 | 0.769 | 0.395 | 0.377 | 0.819 | −0.273 | −1.833 | – | – | – |
| C=C1CCC2CC1C2(C)C (stereo not drawn) [beta-Pinene] | −0.647 | 0.830 | 0.469 | 0.415 | 0.701 | −0.090 | −1.682 | – | – | – |
| CC1=CCC(C(C)C)=CC1 [gamma-Terpinene] | −0.074 | 1.009 | 0.819 | 0.771 | 0.342 | 0.126 | −1.230 | – | – | – |
| Caryophyllene | – | −0.279 | – | – | −1.062 | −0.011 | −0.390 | −1.080 | −0.150 | −0.385 |

Source: patent publication US6741954B2, “Selection method for odorants” (Symrise GmbH & Co. KG, priority 2000, dated 2004)
